Article PMC9863764, “Roles of Human Liver Cytochrome P450 Enzymes in Tenatoprazole Metabolism” (Pharmaceutics, 2022)
Where “and” joins values, the source holds several entries; their conditions need not be identical. Identical values can stand only once.

Columns and labels:
Type in all cases: in vitro ADME
[1] = target: T1, human CYP3A4 (Homo sapiens, UniProt P08684); assay: Sulfoxidation of tenatoprazole sulfide by recombinant CYP3A4 (chiral chromatography)
T1 construct: made in house; host or cells: Escherichia coli (membrane fractions)
T1 sequence (P08684 whole entry): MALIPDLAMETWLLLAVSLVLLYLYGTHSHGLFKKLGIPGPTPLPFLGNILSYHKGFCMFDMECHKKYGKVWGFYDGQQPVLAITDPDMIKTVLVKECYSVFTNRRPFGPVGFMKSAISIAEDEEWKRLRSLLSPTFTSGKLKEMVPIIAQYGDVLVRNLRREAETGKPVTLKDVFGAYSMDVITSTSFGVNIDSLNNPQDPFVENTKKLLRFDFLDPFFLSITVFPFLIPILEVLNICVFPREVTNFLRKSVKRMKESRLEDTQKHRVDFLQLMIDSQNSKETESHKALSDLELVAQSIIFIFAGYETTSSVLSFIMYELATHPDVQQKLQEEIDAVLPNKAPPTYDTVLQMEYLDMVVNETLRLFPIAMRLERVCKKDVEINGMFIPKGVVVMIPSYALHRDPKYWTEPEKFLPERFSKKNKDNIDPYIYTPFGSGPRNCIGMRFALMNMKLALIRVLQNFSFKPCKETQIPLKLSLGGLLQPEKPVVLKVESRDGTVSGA
Experimental: The sulfoxidation reaction of tenatoprazole sulfide by CYP3A4 was measured by chiral chromatography. […] The reaction was initiated by adding NGS at 37 °C. […] After the residues were solubilized in 180 μL mobile phase, 30 μL samples were injected onto a Chiralpak AD column (4.6 × 150 mm, 10 μm; Daicel Corporation, Osaka, Japan) with a hexane-ethanol mixture (30:70, v/v) as the mobile phase. The products formed were analyzed by HPLC at […]. […] The kinetic parameters (kcat and Km) were determined by using a Michaelis-Menten nonlinear regression analysis with GraphPad Prism (GraphPad Software, San Diego, CA, USA).

[2] = target: T1, human CYP3A4; assay: Steady-state kinetics of tenatoprazole oxidation by recombinant CYP3A4; settings: 30 min incubation, LC-QTOF-MS
Experimental: Pooled liver microsomes from human samples were obtained from ThermoFisher Scientific (Waltham, MA, USA). […] Membrane fractions expressing both P450 and CPR of E. coli were prepared as described previously and were used for the catalytic activity assays. […] The reaction was started by adding NGS and the incubation was continued for the indicated time at 37 °C. Incubation was then stopped by adding ice-chilled ethyl acetate (0.50 mL) and omeprazole (IS) was added to a final concentration of 20 μM. […] Phenomenex, Torrance, CA, USA). The products formed were analyzed by HPLC at […]. The HPLC profile of the authentic chemicals (i.e., tenatoprazole, tenatoprazole sulfide, and their metabolites) were used to identify the major metabolites of tenatoprazole and tenatoprazole sulfide produced by the recombinant P450s. […] The kinetic parameters (kcat and Km) were determined by using a Michaelis-Menten nonlinear regression analysis with GraphPad Prism (GraphPad Software, San Diego, CA, USA). To further characterize the nature of the metabolites, the reaction mixtures were additionally analyzed by a 6530 Quadrupole Time-of-Flight (QTOF) mass spectrometer (MS) (Agilent, Santa Clara, CA, USA) coupled with a 1290 Infinity ultra-performance liquid chromatography (UPLC) system (Agilent). […] The reaction was initiated by adding NGS at 37 °C. […] Then, the upper layer was transferred to a glass tube and dried under nitrogen stream. The residues were reconstituted in 0.30 mL acetonitrile, then 1 μL samples were injected into an LC-MS system. The analytical column was a Hypersil Gold C18 column (100 × 2.1 mm, 1.9 μm; ThermoFisher Scientific). […] A gradient program was used for HPLC separation, and the flow rate was 0.4 mL/min. […] The column and autosampler were kept at 35 °C and 4 °C, respectively, during analysis. Electrospray ionization was performed in the positive ion mode. The sheath gas flow rate was 8 L/min. The flow rate of drying gas was 12 L/min at 350 °C, and the nebulizer's temperature was set at 350 °C. The capillary voltage was 4500 V in the positive mode, and that of the fragmentor was 175 V. Data acquisition were done over a scan range from 50 m/z to 1000 m/z in the centroid mode. A reference compound (C18H18O6N3P3F24; [M+H]^+ = 922.0098) was used to correct all of the masses. Tandem mass spectrometry (MS/MS) data were acquired in profile mode via autoanalysis for structural characterization with 30 eV of the collision energy.

[3] = tested on: human liver microsomes (HLMs); assay: Time course of oxidation of tenatoprazole and tenatoprazole sulfide by human liver microsomes (HPLC); settings: human, 12 h, 500 μM, pH 7.4
Experimental: A racemate of tenatoprazole was used in this work because the chiral tenatoprazoles currently are not commercially available. The reactions using HLMs contained incubation at 37 °C in 0.25 mL mixtures containing P450 (0.5 mg protein/mL) in 100 mM potassium phosphate buffer (pH 7.4), an NADPH-generating system (NGS, final concentration of 10 mM glucose-6-phosphate, 0.50 mM NADP^+, 1.0 IU yeast glucose-6-phosphate dehydrogenase per mL), and 0.1 mM of tenatoprazole or tenatoprazole sulfide. Incubations generally were performed for 2 h in the presence or absence of the NGS. Tenatoprazole and its metabolites were extracted twice using cold ethyl acetate as an organic solvent. Then centrifugation (1000× g, 20 min) was done to separate the organic layer from the aqueous layer. Omeprazole was added to this solution as an internal standard (IS) at a final 20 μM concentration. The organic layer was concentrated under nitrogen gas stream. The dried residues were then dissolved in the mobile phase (180 μL) and 30 μL was injected onto the column.
High-performance liquid chromatography (HPLC) was performed on the basis of a previously developed method for tenatoprazole and its metabolites, as described elsewhere. The analytical column was a Gemini C18 column (4.6 × 150 mm, 5 μm; Phenomenex), and the HPLC mobile phase consisted of acetonitrile and 5 mM potassium phosphate buffer (pH 7.3) (25:75, v/v). The substrate and its metabolites were detected at A302. The HPLC profile of the authentic compounds (i.e., tenatoprazole and its metabolites) were measured to compare to identify the major metabolites of tenatoprazole and tenatoprazole sulfide produced by HLMs.
The time course of the oxidation of tenatoprazole and tenatoprazole sulfide by HLMs (0.5 mg protein/mL) was analyzed to the estimated yield of metabolites and percentage of each metabolite using 0.60 mM substrate in 0.25 mL of 0.10 M potassium phosphate buffer (pH 7.4). After NGS was added to initiate the reaction, the samples were incubated for the designated time (i.e., 2, 5, 10, and 30 min, and 1, 2, 4, 8, 12, and 24 h) at 37 °C. Product formation was quantified using HPLC analysis, as mentioned above.
Calibration standard curves of tenatoprazole were made using a blank control sample (a reaction mixture without substrate and IS) and 12 samples containing tenatoprazole and omeprazole (IS) covering the concentration ranges of 1–500 μM, as described previously. The peak area ratio of tenatoprazole to IS was linear with respect to the analyte concentration over the range of 1–500 μM. The metabolites were quantified by comparing the peak areas of each metabolite to the mean peak areas of the IS (20 μM omeprazole).

With `COc1ccc2[nH]c([S@+]([O-])Cc3ncc(C)c(OC)c3C)nc2n1` [R-tenatoprazole] the “fold higher catalytic efficiency of R-tenatoprazole formation than S-tenatoprazole formation” value ([1]; substrate tenatoprazole sulfide, CYP3A4) was 1.7 fold and the “kcat of product formation” value ([1]; substrate tenatoprazole sulfide, recombinant CYP3A4, chiral chromatography, label = product formed) was 0.0667 s⁻¹ and 0.0667 ± 0.005 s⁻¹.

With `COc1ccc2[nH]c(SCc3c(C)c(OC)c(CO)c[n+]3[O-])nc2n1` [1′-N-oxy-5′-OH tenatoprazole sulfide, 1′-N-oxy-5′-hydroxytenatoprazole sulfide] the “amount of metabolite observed in CYP3A4-catalyzed reaction” value [2] was “only trace amounts”.

For `COc1ccc2[nH]c(SCc3ncc(C)c(OC)c3C)nc2n1` [tenatoprazole sulfide, Tenatoprazole sulfide], the “conversion yield to tenatoprazole sulfide” value [3] was 94.8%, the tenatoprazole sulfide remained ([3]; microsomes) was “More than 99%” and the “sulfoxidation activity to produce tenatoprazole” value ([1]; recombinant CYP3A4, substrate tenatoprazole sulfide) was “showed the sulfoxidation activity”.
